Legend:
skin [1] = experiment: Clinical suppression of superficial porphyrin synthesis by inhibiting light during ALA metabolism; type: in vivo
Description: In further embodiments, superficial porphyrin accumulation resulting from topical application of ALA may be suppressed by blue light exposure during ALA metabolism. For example, a topical solution of 20% ALA can be applied to a region of skin. The region of skin can then be exposed to low level irradiance 410 nm blue light to inhibit accumulation of porphyrins. This light can be applied during the period of ALA metabolism, e.g., immediately after the application of the topical ALA solution or later in time. […] Here, clinical suppression refers to a diminished response of the tissue to treatment radiation in subsequent PDT procedures.

[2] = system: anterior ear skin of swine; type: in vivo
Method: Studies of ALA metabolism and porphyrin accumulation rates have been performed in anterior ear skin of swine. Such tissue bears many similarities to facial skin tissue in humans with respect to size and location of relevant tissue layers and target regions such as hair follicles and sebaceous glands. Topical 20% ALA in a water/alcohol solution was applied to the skin tissue, and formation of photosensitizers was analyzed based on quantitative fluorescence analysis of porphyrins formed from the ALA.
Overall porphyrin fluorescence was not observed until about 30-45 minutes after application of the ALA solution, although epidermis fluorescence measurement was statistically significant after only 15 minutes following the ALA application. Between about 30 and 120 minutes following application of the ALA solution, epidermis, hair follicles, and sebaceous glands became progressively more fluorescent. […] Fluorescence in all sites reached a maximum intensity between about 75 and 180 minutes after application of the ALA solution.

human skin = experiment: Example 1: suppression of epidermal porphyrin accumulation by blue light exposure during ALA metabolism; type: in vivo; conditions: 20% topical ALA, 410-nm blue light 1.47 mW/cm^2 during 2 hours incubation, then 632-nm light 100 J/cm^2
Method: Suppression of epidermal porphyrin accumulation by blue light exposure during ALA metabolism, in accordance with exemplary embodiments of the present invention, was tested in humans. With reference to FIG. 6, a 20% topical ALA solution was applied to human skin 610, covered with aluminum foil 620, while only some uncovered areas received 410-nm blue light (1.47 mW/cm^2) 630 during the incubation time. A fluorescent photo 640 was taken after 2 hours of incubation, and 632-nm light (100 J/cm^2) was then applied to all areas 650. A clinical photograph 660 was taken after PDT treatment.

skin of a pig = experiment: Example 2: blue light through attenuating films during ALA incubation; porphyrin accumulation by fluorescence; type: in vivo; conditions: 20% topical ALA, 410 nm blue light 2.6 mW/cm^2 for 3 hours through attenuating films, 100% to 17% transmittance (0.4 mW/cm^2)
Method: In accordance with embodiments of the present invention, 20% topical ALA was applied to the skin of a pig. Nine different areas were divided and different attenuating films were placed over the skin during the entire incubation time (or the metabolism period). The attenuating films reduced the light transmittance allowing a range of irradiance varying from 100%, 56%, 44%, 35%, 26%, 21%, 19% to 17% of light during the incubation period.
Immediately after the drug application, a 410 nm blue light was irradiated through all the experiment sites at an irradiance of 2.6 mW/cm^2 for 3 hours. During this period, porphyrin accumulation was measured in each test area by digital fluorescence photography (˜410 nm excitation, >600 nm emission), and microscopically determined by fluorescence microscopy of skin biopsies (8 mm diameter) obtained prior to light exposure. After the 3 hours of incubation, red light at 635 nm exposure with 200 J/cm^2 fluence was delivered at 100 mW/cm^2 irradiance, provided by an LED array source (Omnilux, PhotoTherapeutics LTD, Cheshire UK). Measurements and biopsies were repeated after 24 hours, prior to euthanasia.

[3] = system: moderate to severe inflammatory acne; type: in vivo, human; conditions: both sides of the face
Method: A 20% ALA solution (Dusa Pharmaceutics) was applied topically to the patient's face. The right side of the patient's face was covered with saran wrap and aluminum foil for 3 hours of incubation (to provide a conventional PDT treatment), while blue light at very low intensity (an inhibiting radiation) was applied to the left side of the patient's face for 3 hours (using a Clearlight at […], provided about 2 meters from the patient).
After the incubation period, both sides of the face were irradiated with red light treatment radiation (635 nm wavelength, at about 180 J/cm^2, using an Aktilite). During the red light irradiation, the patient indicated a subjective pain score of about 9-10 (on a 0-10 scale, with 0 being no pain, 5 being moderate pain, and 10 being maximum pain) on the right side of their face receiving conventional PDT treatment.

skin [4] = experiment: Example 1: cooling and heating plates applied to skin after topical and injected ALA; porphyrin synthesis and skin photosensitization; type: in vivo
Method: When a skin surface is cooled, there can be a gradient of temperature such that ALA metabolism might favor the warm dermis. To examine this effect, cooling and heating plates were applied to skin after topical and injected ALA administration, and porphyrin synthesis and skin photosensitization were then determined.

time after application at which epidermis fluorescence measurement was statistically significant ([2]; swine): 15 min | time after application at which fluorescence reached maximum intensity ([2]; swine, in vivo): 75 to 180 min | time after application until overall porphyrin fluorescence was observed ([2]; swine, in vivo): 30 to 45 min | time at which eccrine gland fluorescence was first detected ([2]; swine, in vivo): about 30 minutes | time at which sebaceous glands started to show fluorescence ([2]; swine, in vivo): 45 to 75 min
Structure (SMILES): NCC(=O)CCC(=O)O [ALA, 5-aminolevulinic acid]
clinical suppression of superficial porphyrin synthesis (skin [1]; red light 633 nm, irradiance about 14-40 mW/cm^2): some clinical suppression | clinical suppression of epidermal and/or superficial porphyrin synthesis (skin [1]; topical 20% ALA, blue light 415 nm, irradiance about 10-30 mW/cm^2 during ALA metabolism): almost complete clinical suppression | suppression of photosensitizer formation (skin [1]; topical 20% ALA, blue light, irradiance about 60 μW/cm^2 to 3 mW/cm^2): Some suppression | clinical suppression of photosensitizer formation (skin [1]; topical 20% ALA, blue light, irradiance less than about 30 μW/cm^2): No clinical suppression | fluorescence of hair follicles and sebaceous glands relative to other sites (trend) ([2]; in vivo): stronger fluorescence compared with epidermis and eccrine glands | porphyrin accumulation and subsequent PDT reactions (human skin): suppressed | porphyrin accumulation under blue light (skin of a pig): inhibition of porphyrin accumulation in all sites down to 17% light transmittance | acne outcome after four weeks [3]: no new inflammatory acne | conversion of epidermal ALA to porphyrins (skin [4]; skin cooling to less than about 20° C., topical and injected ALA): significantly suppress | dermal porphyrin synthesis (skin [4]; skin surface temperature 20° C.): partially suppressed
